Measurements reported in ChEMBL document CHEMBL5036377, “Improved Metabolically Stable 5-HT Receptor Modulators and the Development of New Antidepressants” (ACS Med Chem Lett, 2022).

Legend:
[1] = Stability in rat brain homogenate assessed as half life; assay type: ADME, tissue-based
[2] = Stability in human liver mitochondria assessed as compound remaining in presence of MAO-A and MAO-B measured after 60 mins; assay type: ADME; settings: read-out: Stability
[3] = Stability in rat brain homogenate assessed as compound remaining measured after 120 mins; assay type: ADME, tissue-based; settings: read-out: Stability

SMILES | half-life [1] [h] | remaining at 1 h [2] [%] | remaining at 2 h [3] [%]
c1ccc2c(CCN3CCC3)c[nH]c2c1 | > 4.82 | 85.2 | 91.9
COc1ccc2[nH]cc(CCN(C)C)c2c1 [MEBUFOTENIN] | 0.24 | 47.1 | 0.3
CN(C)CCc1c[nH]c2cccc(O)c12 [PSILOCIN] | 1.91 | 112 | 46.1
COc1ccc2[nH]cc(CCN3CCC3)c2c1 | > 4.82 | 106 | 98
Oc1cccc2[nH]cc(CCN3CCC3)c12 | 2.91 | 88.2 | 56.8
CN(C)CCc1c[nH]c2ccccc12 | 0.085 | 8.9 | 0
